Experimental data from patent publication US6221874A, “Method of treating bone loss by stimulation of calcitonin” (American Home Products Corporation, priority 1999, dated 2001).
pIC50: −log10 of the molar value.

What was measured:
[1] = tested on: calcitonin secreted by the C1-3 cell line (TT medullary thyroid carcinoma); test: Calcitonin Secretion/RIA Assay; format: cell-based; conditions: Homo sapiens, C13, C1-3 cells, active if Secretion Ratio>2.5
Experimental: Calcitonin Secretion/RIA Assay Protocol
This assay was used to determine the ability of a compound to increase the amount of calcitonin secreted by the C1-3 cell line.
Cell Line: C1-3 (Parent Cell Line: TT-medullary thyroid carcinoma),
1. Glass tubes were labeled to include Total Count (TC), Nonspecific Binding (NSB), Maximum Binding (Bo), Standards, Controls and Patient Sera in duplicate.
2. […] of Standard Zero (Reagent D) was added to tubes 3 through 6 (NSB and Bo).
3. […] of Standards* (Reagents E-1) was added to tubes 7-16 as follows:
4. […] of Patient Serum 1 was added to tubes 21 and 22, Patient Serum 2 was added to tubes 23 and 24, etc.
5. […] of Reagent L (NSB Buffer) was added to tubes 3 and 4.
6. […] of Reagent A (Anti-Calcitonin) was added to all tubes except tubes 1 & 2 (TC) and tube 3 & 4 (NSB). All tubes were vortexed, covered with parafilm or foil and incubated 44±6 hours at 2-8° C.
7. […] of 125.vertline.Calcitonin (Reagent B) was added to all tubes. All tubes were vortexed, covered with parafilm or foil and incubated 22±3 hours at 2-8° C.
8. Reagent C (Anti-Goat Precipitant) was mixed gently but thoroughly by inverting the vial several times before use. 1 mL Reagent C was added to all tubes except 1 and 2 (TC). Tubes were vortexed and incubated 20 minutes at room temperature.
9. All tubes were centrifuged at 1300-1500×g for 15 minutes at 2-8° C.
10. Supernatant was decanted immediately after centrifugation taking care to leave the precipitate intact.
11. Tubes were counted 4 minutes or longer.
Secretion Ratio: Stimulation of calcitonin secretion is expressed as a ratio of secretion activity in the presence of test compound compared to the secretion activity in the untreated control: [formula]
Secretion Activity: Compounds were designated active if Secretion Ratio>2.5.

[2] = tested on: Phosphodiesterase IV (PDE-IV) isolated from human U937 cells; test: Inhibition of Phosphodiesterase IV (PDE-IV) Isolated from Human U937 Cells; format: biochemical; conditions: for pIC50: linear regression of percent inhibition data bracketing 50% inhibition; for % Inhibition of PDE IV (normalized to rolipram): 1 μM [3H]-cAMP substrate
[3] = tested on: promoter region of the human calcitonin gene (C1-3 reporter cells, TT human thyroid carcinoma); test: Calcitonin/Luciferase Reporter Gene Expression Assay (transcription activation ratio); format: cell-based; conditions: C13, 12 h, C1-3 cells, active if TAR>1.5, read-out: TAR (transcription activation ratio, luciferase activity with test compound vs untreated control)
[4] = tested on: Ovarietomy Induced Osteopenia in Rats; test: Ovarietomy Induced Osteopenia in Rats (trabecular BMD); format: in vivo; conditions: Rattus norvegicus, 672 h; 30 mg/kg/day, ip; 4 weeks; n=8; * p < 0.005 vs. vehicle value (Examples 6, 12, 18); read-out: Percent Protection (trabecular BMD)
[5] = cited from earlier work
[6] = post-menopausal osteoporosis; cited from earlier work

| Compound | fold induction at 30 µM [1] | pIC50 [2] | % Inhibition of PDE IV (normalized to rolipram) [2] [%] | fold induction at 30 µM [3] | inhibition in vivo at 30 mg/kg [4] [%] | oral bioavailability (in words) [5] | effect on bone mass and total body calcium [6] | incidence of hip and vertebral fractures [6] |
| --- | --- | --- | --- | --- | --- | --- | --- | --- |
| CCCCn1c(=O)c2c(ncn2S(C)(=O)=O)n(CCCC)c1=O [Example 1, 1,3-Dibutyl-7-methanesulfonyl-3,7-dihydro-purine-2,6-dione] | 4.65 | 4.60 | 16 | 2.1 | – | – | – | – |
| CCCCn1c(=O)c2c(ncn2S(=O)(=O)CCCC)n(CCCC)c1=O [Example 2, 7-(Butane-1-sulfonyl)-1,3-dibutyl-3,7-dihydro-purine-2,6-dione] | 4.65 | – | 97 | 2.2 | 23 | – | – | – |
| CCCCn1c(=O)c2c(ncn2S(=O)(=O)c2cccc([N+](=O)[O-])c2)n(CCCC)c1=O [Example 3, 1,3-Dibutyl-7-(3-nitro-benzenesulfonyl)-3,7-dihydro-purine-2,6-dione] | 1.65 | – | 87 | 2 | 30 | – | – | – |
| CCCCn1c(=O)c2c(ncn2S(=O)(=O)c2ccc(OC)c(OC)c2)n(CCCC)c1=O [Example 4, 1,3-Dibutyl-7-(3,4-dimethoxy-benzenesulfonyl)-3,7-dihydro-purine-2,6-dione] | 4.7 | 5.92 | 41 | 2.5 | 35 | – | – | – |
| CCCCn1c(=O)c2c(ncn2S(=O)(=O)c2cccs2)n(CCCC)c1=O [Example 5, 1,3-Dibutyl-7-(thiophene-2-sulfonyl)-3,7-dihydro-purine-2,6-dione] | – | – | 52 | 1.8 | – | – | – | – |
| CCCCn1c(=O)c2c(ncn2S(=O)(=O)CCCCl)n(CCCC)c1=O [Example 6, 1,3-Dibutyl-7-(3-chloro-propane-1-sulfonyl)-3,7-dihydro-purine-2,6-dione] | 3.6 | 5.39 | 44 | 2 | 47 | – | – | – |
| CCCCn1c(=O)c2c(ncn2S(=O)(=O)c2cccc3ccccc23)n(CCCC)c1=O [Example 7, 1,3-Dibutyl-7-(naphthalene-1-sulfonyl)-3,7-dihydro-purine-2,6-dione] | 4.5 | – | 83 | 2.5 | 37 | – | – | – |
| CCCCn1c(=O)c2c(ncn2S(=O)(=O)c2ccc(NO)cc2)n(CCCC)c1=O [Example 8, 1,3-Dibutyl-7-(4-hydroxyamino-benzenesulfonyl)-3,7-dihydro-purine-2,6-dione] | 5.4 | – | 82 | 2 | -2 | – | – | – |
| CCCCn1c(=O)c2c(ncn2S(=O)(=O)Cc2ccccc2)n(CCCC)c1=O [Example 9, 1,3-Dibutyl-7-phenylmethanesulfonyl-3,7-dihydro-purine-2,6-dione] | 5.1 | 5.49 | 93 | 2.3 | 25 | – | – | – |
| CCCCn1c(=O)c2c(ncn2S(=O)(=O)C[C@@]23CC[C@@H](CC2=O)C3(C)C)n(CCCC)c1=O [Example 10, 1,3-Dibutyl-7-(7,7-dimethyl-2-oxo-bicyclo[2.2. 1]hept-1-ylmethanesulfonyl)-3,7-dihydro-purine-2,6-dione] | 4.5 | – | 89 | 2 | -10 | – | – | – |
| CCCCn1c(=O)c2c(ncn2S(=O)(=O)c2ccc(N(OC(C)=O)C(C)=O)cc2)n(CCCC)c1=O [Example 11, N-Acetoxy-N-[4-(1,3-dibutyl-2,6-dioxo-1,2,3,6-tetrahydro-purine-7-sulfonyl)-phenyl]-acetamide] | 4.3 | – | – | 2.1 | – | – | – | – |
| CCCCn1c(=O)c2c(ncn2S(=O)(=O)c2c(C)cc(C)cc2C)n(CCCC)c1=O [Example 12, 1,3-Dibutyl-7-(2,4,6-trimethyl-benzenesulfonyl)-3,7-dihydro-purine-2,6-dione] | 4.04 | 5.22 | 42 | 2.1 | 50 | – | – | – |
| CCCCn1c(=O)c2c(ncn2S(=O)(=O)c2ccc(C(C)(C)C)cc2)n(CCCC)c1=O [Example 13, 1,3-Dibutyl-7-(4-tert-butyl-benzenesulfonyl)-3,7-dihydro-purine-2,6-dione] | 5.1 | – | 66 | 1.8 | 13 | – | – | – |
| CCCCn1c(=O)c2c(ncn2S(=O)(=O)c2c(C)noc2C)n(CCCC)c1=O [Example 14, 1,3-Dibutyl-7-(3,5-dimethyl-isoxazole-4-sulfonyl)-3,7-dihydro-purine-2,6-dione] | 3.3 | – | 20 | 2.5 | – | – | – | – |
| CCCCn1c(=O)n(CC=C(C)C)c(=O)c2c1ncn2S(=O)(=O)c1ccc(C)cc1 [Example 15, 3-Butyl-1-(3-methyl-but-2-enyl)-7-(toluene-4-sulfonyl)-3,7-dihydro-purine-2,6-dione] | 3.74 | 5.28 | 35 | 2.1 | 15 | – | – | – |
| CCCCn1c(=O)n(CC)c(=O)c2c1ncn2S(=O)(=O)c1ccc(C)cc1 [Example 16, 3-Butyl-1-ethyl-7-(toluene-4-sulfonyl)-3,7-dihydro-purine-2,6-dione] | – | 5.22 | 38 | 2.1 | – | – | – | – |
| CCCCn1c(=O)n(CC=C(C)C)c(=O)c2c1ncn2S(=O)(=O)c1ccc(OC)c(OC)c1 [Example 17, 3-Butyl-7-(3,4-dimethoxy-benzenesulfonyl)-1-(3-methyl-but-2-enyl)-3,7-dihydro-purine-2,6-dione] | 3.66 | – | 24 | 2.8 | – | – | – | – |
| CCCCn1c(=O)c2c(ncn2S(=O)(=O)c2cc(C)c(Cl)cc2C)n(CCCC)c1=O [Example 18, 1,3-Dibutyl-7-(4-chloro-2,5-dimethyl-benzenesulfonyl)-3,7-dihydro-purine-2,6-dione] | 5.32 | 4.63 | 37 | 2.5 | 52 | – | – | – |
| CCCCn1c(=O)c2c(nc(C)n2S(=O)(=O)CCCCl)n(CCCC)c1=O [Example 19, 1,3-Dibutyl-7-(3-chloro-propane-1-sulfonyl)-8-methyl-3,7-dihydro-purine-2,6-dione] | 4.09 | – | 5 | 1.7 | – | – | – | – |
| CCCCn1c(=O)c2c(nc(C)n2S(=O)(=O)c2ccc(C)cc2)n(CCCC)c1=O [Example 20, 1,3-Dibutyl-8-methyl-7-(toluene-4-sulfonyl)-3,7-dihydro-purine-2,6-dione] | 3.23 | – | 58 | 2 | – | – | – | – |
| calcitonin: 32 amino acid polypeptide hormone secreted by the parafollicular or C cells of the thyroid gland | – | – | – | – | – | lack of oral bioavailability | maintenance of bone mass and total body calcium | decreases in the incidence of hip and vertebral fractures |
